Laboratory results taken from patent US9220680B2, “Compositions and methods for localized drug delivery through mammary papillae” (South Dakota State University, priority 2012, dated 2015).
“Also recorded” adds a separate entry of the source. Read-outs that look alike come from different tables or passages of the source.

Key:
[1] = In vitro penetration and permeation via excised porcine mammary papilla, Franz diffusion cell (Example 1); type: in vitro ADME
Experimental: Drug penetration and permeation via mammary papillae was performed in a Franz diffusion cell using excised porcine mammary papilla. […] The transport studies were performed at time points for 6 and 48 hours.
In a separate study to evaluate the drug retention and disposition, the treatment was removed after 6 hours and the study was continued until the 48 hour mark. Samples were withdrawn from the receptor compartment at different time points. At the end of study, the mammary papilla was cut to 2 mm thick cylindrical sections from the top to the base of the tissue and was digested using a tissue solubilizer. The drug concentrations were determined by liquid scintillation counting.
Methods for the preparation of porcine mammary papilla. Freshly excised strips of porcine mammary papilla (6-7 months old animals) were washed with deionized water followed by removal of subcutaneous fatty tissue using a scalpel. Keeping the mammary papilla in the center, 3 cm×3 cm sized specimens of the tissue were excised, subcutaneous fat tissue was removed, and the tissue was frozen at −20° C. until used for the drug penetration and permeation studies.
Breast tissue was mounted between the two compartments of a vertical Franz diffusion cell (FDC) with breast tissue sandwiched between donor and receptor compartments. A mammary papilla was set in upright position inside the donor compartment of Franz diffusion cell. […] Samples were withdrawn from the receptor at different time points for 48 hours to determine drug concentration by radioactive count. At the end of 48 hours, tissue samples were taken for drug content determination. […]
In a second study, the mammary papillae in Franz diffusion cells were treated with the drugs for 48 hours and the permeation was followed through 48 hours. This analysis provided information regarding any saturation from drug treatment for extended periods of time. […]
Extraction of drugs from the mammary papilla. At the end of permeation study, the mammary papilla was removed from Franz diffusion cell and thoroughly washed with deionized water and blotted dried. Approximately 2 mm thick sections of the tissue were taken using a scalpel. These sections were homogenized, the drug was extracted, and the drug concentration was determined by radioactive counts.

[2] = Permeation across human breast skin (Experiments 16-18); type: in vitro ADME; conditions: human breast skin, value (SEM)
Text: Mammary papillae and skin tissues were thawed. Keratin plugs were removed from the mammary papilla tissues using swabs with ethanol. […] The drug solutions were spiked with radioactive substances. […] Receptor medium was PBS with 7.4 pH. […] Results may be seen in FIG. 41 and Table 20.
Mammary papillae and skin tissues were thawed. Keratin plugs were removed from the mammary papilla tissues using swabs with ethanol. […] The drug solutions were spiked with radioactive substances. […] Receptor medium was PBS with 7.4 pH. […] Results may be seen in FIG. 42 and Table 22. […]

[3] = Permeation across human mammary areola vs human breast skin (Experiments 19-21); conditions: cadaver tissue; donor in 50:50 ethanol:water; 48 hours
Experimental: Mammary areolae and skin tissues were procured from a cadaver (Pacific Islander). […] The drug solutions were spiked with radioactive substances. Now 500 μl of the formulation was placed in the donor. Receptor medium was PBS with 7.4 pH. Three […] samples of donor were taken to determine DPM of donors. 200 μl samples were taken from the receptor at pre-determined time points. […] Results may be seen in FIG. 44.
Mammary areolae and skin tissues were procured from a cadaver (Pacific Islander). […] The drug solutions were spiked with radioactive substances. Now 500 μl of the formulation was placed in the donor. Receptor medium was PBS with 7.4 pH. Three 400 μl samples of donor were taken to determine DPM of donors. 200 μl samples were taken from the receptor at pre-determined time points. […] Results may be seen in FIG. 45.
Mammary areolae and skin tissues were procured from a cadaver (Pacific Islander). […] The drug solutions were spiked with radioactive substances. Now 500 μl of the formulation was placed in the donor. Receptor medium was PBS with 7.4 pH. Three 400 μl samples of donor were taken to determine DPM of donors. 200 μl samples were taken from the receptor at pre-determined time points. […] Results may be seen in FIG. 46.

[4] = rat
[5] = excised porcine mammary papilla, saturated solution in ethanol:water (50:50), 48 h, mean ± SEM, n=3
[6] = porcine mammary papilla, end of 48 h, mean ± SEM, n=3

Question: For `O=c1[nH]cc(F)c(=O)[nH]1` [5FU, 5-fluorouracil], which Lag time ([1]; excised porcine mammary papilla, Franz diffusion cell, saturated solution in ethanol:water (50:50), 48 h, mean ± SEM, n=3) is on record?
Answer: 8.18 ± 0.79 h

Question: And the Cumulative % permeated [1, 5]?
Answer: 5.71 ± 0.06%

Question: What about the “Flux × 10^3” value [1, 5] of the same molecule?
Answer: 38.46 ± 2.38 μM · cm^2 · hr^−1

Question: And the “Permeability coefficient × 10^3” value [1, 5]?
Answer: 0.25 ± 0.015 cm^2 · hr^−1

Question: What about the cumulative amount permeated [1, 5] of the same molecule?
Answer: 4.38 ± 0.04 µM

Question: What about the Cumulative % retained [1, 6] of the same molecule?
Answer: 4.94 ± 0.74%

Question: What about the Cumulative amount retained [1, 6] of the same molecule?
Answer: 3.80 ± 0.56 µM

Question: What about the “Drug extraction from 2 mm thick mammary papilla sections, Section A (tip)” value [1, 6] of the same molecule?
Answer: 13.47 ± 1.35 µM/g

Question: And the “Drug extraction from 2 mm thick mammary papilla sections, Section B” value [1, 6]?
Answer: 11.78 ± 1.69 µM/g

Question: What about the “Drug extraction from 2 mm thick mammary papilla sections, Section C” value [1, 6] of the same molecule?
Answer: 9.80 ± 1.44 µM/g

Question: What about the “Drug extraction from 2 mm thick mammary papilla sections, Section D (base)” value [1, 6] of the same molecule?
Answer: 5.84 ± 1.69 µM/g

Question: What about the “Permeation across mammary papilla (in words)” value ([1]; porcine mammary papilla, treatment up to 48 hours) of the same molecule?
Answer: significant amount of 5FU passes through the mammary papilla

Question: And the lag time ([2]; 5FU 20 mg/ml in 1:1 ethanol:water)?
Answer: 3.64 (0.37) hours

Question: And the cumulative amount permeated ([2]; 5FU 20 mg/ml, 48 hours)?
Answer: 2.69 (0.22) μmole

Question: What about the “Drug retention in tissue” value ([2]; 5FU 20 mg/ml, end of 48 hours) of the same molecule?
Answer: 9.56 (1.11) umole/g of tissue

Question: What about the Flux ([2]; 5FU 20 mg/ml) of the same molecule?
Answer: 0.08 (0.01) μmole/cm^2/hour

Question: And the “Permeability across human mammary areola compared with human breast skin” value [3]?
Answer: lower than that across human breast skin

Question: What about the “Profile of 5FU in plasma” value ([4]; intravenous injection) of the same molecule?
Answer: quickly eliminating from the blood

Question: What about the “Retention of 5FU in mammary papilla” value ([4]; intravenous injection, 30 minutes) of the same molecule?
Answer: some accumulation of 5FU into the mammary papilla

Question: And the “5FU retention into the vital organs (kidneys, heart, liver, lungs, spleen and brain)” value ([4]; topical application (transmammary and transdermal) vs intravenous injection)?
Answer: several folds lower than that after intravenous injection

Question: And the “5FU in blood / plasma” value ([4]; topical delivery (transmammary and transdermal), 6 h)?
Answer: no amount of 5FU was observed into the blood; also recorded: below the level of detection

Question: And the “Retention of 5FU in mammary papilla” value ([4]; transdermal treatment, 6 h)?
Answer: no 5FU was observed into the mammary papilla

Question: And the “Amount of 5FU in mammary gland” value ([4]; transmammary treatment 250 μl of 10 mg/ml for 6 h, compared with intravenous and transdermal)?
Answer: highest amount of 5FU in mammary gland

Question: What about the “Retention of 5FU in mammary papilla” value ([4]; transmammary treatment, 6 h) of the same molecule?
Answer: significant retention of 5FU into the mammary papilla
